The target of test [1] is T1, Desulfovibrio vulgaris Hildenborough (DvH) FDH2, recombinant Strep-tag II-tagged (FDH2^Rec), large subunit DVU2482 SEQ ID NO: 31, small subunit DVU2481 SEQ ID N (Nitratidesulfovibrio vulgaris, UniProt Q728X0).
T1 sequence (Q728X0 36-1003): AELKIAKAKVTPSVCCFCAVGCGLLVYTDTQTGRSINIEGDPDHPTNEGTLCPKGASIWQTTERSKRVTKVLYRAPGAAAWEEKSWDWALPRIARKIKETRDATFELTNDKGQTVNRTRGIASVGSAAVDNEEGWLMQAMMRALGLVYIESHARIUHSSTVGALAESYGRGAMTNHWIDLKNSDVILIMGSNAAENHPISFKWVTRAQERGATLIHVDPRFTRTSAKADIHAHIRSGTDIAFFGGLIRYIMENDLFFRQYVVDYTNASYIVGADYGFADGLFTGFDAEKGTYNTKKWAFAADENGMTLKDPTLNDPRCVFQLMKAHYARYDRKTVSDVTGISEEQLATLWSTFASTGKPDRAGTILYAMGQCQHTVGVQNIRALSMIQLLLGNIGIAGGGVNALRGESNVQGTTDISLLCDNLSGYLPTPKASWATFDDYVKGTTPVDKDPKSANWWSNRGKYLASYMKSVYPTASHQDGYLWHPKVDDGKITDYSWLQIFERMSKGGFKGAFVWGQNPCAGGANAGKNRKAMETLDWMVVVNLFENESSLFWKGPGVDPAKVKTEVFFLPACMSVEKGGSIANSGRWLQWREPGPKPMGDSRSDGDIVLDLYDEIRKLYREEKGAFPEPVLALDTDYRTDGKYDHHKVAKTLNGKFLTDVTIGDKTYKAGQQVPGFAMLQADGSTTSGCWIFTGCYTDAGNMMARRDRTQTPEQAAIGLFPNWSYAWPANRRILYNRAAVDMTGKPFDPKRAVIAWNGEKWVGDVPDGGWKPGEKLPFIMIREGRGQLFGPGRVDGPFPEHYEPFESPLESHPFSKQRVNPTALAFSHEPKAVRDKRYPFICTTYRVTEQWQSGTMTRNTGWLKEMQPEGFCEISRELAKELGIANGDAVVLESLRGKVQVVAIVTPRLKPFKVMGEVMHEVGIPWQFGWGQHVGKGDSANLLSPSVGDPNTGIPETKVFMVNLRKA
T1 sequence (Q728X1 1-260 partner): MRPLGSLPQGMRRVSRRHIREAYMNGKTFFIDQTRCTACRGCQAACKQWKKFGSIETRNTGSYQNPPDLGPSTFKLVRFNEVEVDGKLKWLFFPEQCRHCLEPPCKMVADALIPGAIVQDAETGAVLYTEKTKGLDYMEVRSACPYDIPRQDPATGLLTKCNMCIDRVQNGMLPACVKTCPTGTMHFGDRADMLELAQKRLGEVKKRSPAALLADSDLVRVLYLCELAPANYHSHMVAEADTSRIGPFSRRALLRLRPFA
Kind of test: Inhibition of PES/DCPIP reduction by DvH-FDH2. The test is classed as biochemical. Details: some rows (FDH2^WT, da Silva et al.) are the native enzyme. As to conditions: anaerobic and aerobic. As for the experimental part: FIG. 22. Effect of sodium azide on PES/DCPIP reduction by DvH-FDH2. Panel (A) illustrates raw anaerobic kinetics, Panel (B) illustrates data from Panel (A) converted to reduced DCPIP concentration, Panel (C) illustrates 4-parameter sigmoidal fit of Panel (B), Panel (D) illustrates aerobic raw traces, Panel (E) illustrates data from Panel (D) converted to reduced DCPIP concentration, and Panel (F) illustrates a 4-parameter sigmoidal fit of […]. IC50 values were in the range of 0.8 mM.
FIG. 23. Effect of sodium nitrate on PES/DCPTP reduction by DvH-FDH2. Panel (A) illustrates raw anaerobic kinetics, Panel (B) illustrates data from Panel (A) converted to reduced DCPTP concentration, Panel (C) illustrates raw aerobic kinetics, and Panel (D) illustrates data from Panel (C) converted to reduced DCPTP concentration.
To test this hypothesis, activity assays were independently pursued with the PES/DCPIP pair. As has been observed for other dehydrogenases^91, PES served as an efficient electron acceptor for DvH-FDH2 (FIG. 19(A)). […]
In this dye-linked assay, PES (Em,7=+65 mV) serves as the primary electron acceptor. […] Assays were performed using a UV-2600i spectrophotometer (Shimadzu Life Sciences) equipped with T2 Peltier/stirrer accessory (Quantum) and monitored at 600 nm. […]

In the next test the target is DvH-FDH2 (Nitratidesulfovibrio vulgaris (Desulfovibrio vulgaris Hildenborough), UniProt Q728X0). The test is classed as biochemical.

With `O=[N+]([O-])[O-].[Na+]` [nitrate, sodium nitrate], in test [1], the “inhibition relative to azide” value is on record as “far less effective”. Moreover, the “Inhibition of DvH-FDH2 compared with azide” value on DvH-FDH2 is listed as “far less effective”.

The values are drawn from patent publication US20250357519A1, “APPLICATIONS OF O2-INSENSITIVE FORMATE DEHYDROGENASE” (UNIVERSITY OF MARYLAND, BALTIMORE, priority 2022, published 2025).
